{
  "source": "patent US12564601B2",
  "about": "“Methods for treating hepatitis B infection” (priority 2017, dated 2026)",
  "key": {"HBV": {"tested_on": "HBV", "test": "Entecavir combination study in HBV-expressing mouse (HDI model)", "assay_type": "in vivo, mice", "settings": "for circulating (plasma) HBsAg / hepatic viral RNAs (liver HBV mRNA and pgRNA): HDI model; for circulating (plasma) HBsAg: ELISA; for hepatic viral RNAs (liver HBV mRNA and pgRNA): qPCR", "description": "The RNAi oligonucletoides targeting the S antigen impact both the viral polymerase and HBsAg protein. In this study, the combinational effects of HBV(s)-219P2 as a monotherapy and combinational treatment with entecavir was explored in an HBV-expressing mouse (HDI model) for antiviral activity.\nMice were administered daily oral dosing of 500 ng/kg Entecavir (ETV) for 14 days. A single subcutaneous administration of HBV(s)-219P2 took place. Circulating viral load (HBV DNA) was measured by qPCR (FIG. 15A), plasma HBsAg level was measured by ELISA (FIG. 15B), and liver HBV mRNA and pgRNA levels were measured by qPCR."}, "HBsAg mRNA": {"tested_on": "HBsAg mRNA", "test": "Time course of HBsAg mRNA expression in HDI model of HBV", "assay_type": "in vivo, mouse", "settings": "three once-weekly doses of 3 mg/kg", "description": "The durational effects of the HBV(s)-219P1 oligonucleotide were examined in two different mouse models of HBV—an HDI model, which is cccDNA-dependent, and an AAV model, which is cccDNA independent. A time course (12 weeks) analysis of HBsAg mRNA expression was performed in the context of a treatment involving three once-weekly doses of 3 mg/kg with the HBV(s)-219P1 oligonucleotide targeting HBsAg mRNA compared with vehicle control and an RNAi oligonucleotide targeting HBxAg mRNA in the HDI model of HBV (FIG. 12A)."}, "HBsAg": {"tested_on": "HBsAg", "test": "Plasma HBsAg suppression, S- versus X-targeting oligonucleotides, HDI model", "assay_type": "in vivo, mice", "settings": "single saturating 9 mg/kg SC dose, n=3", "description": "In this study, HBV-expressing mice (HDI model) were administered HBV(s)-219P2, GalXC-HBVX (same sequence as the GalXC-HBVX used in FIGS. 12A and 12B), or a combination of the two RNAi oligonucleotides and plasma HBsAg level two weeks or nine weeks post dose were monitored."}, "HBsAg viral transcript": {"tested_on": "HBsAg viral transcript", "test": "HBsAg levels in HDI-mice after subcutaneous HBV-254", "assay_type": "in vivo", "description": "Preclinical potency was further evaluated in mice following a QW×3 dosing regimen in which HBV-254 was subcutaneously administered at 3 mg/kg (FIG. 3). The administration points are indicated by arrows in the figure. HBsAg levels were monitored in both oligonucleotide treated and untreated control mice for a period spanning 147 days."}, "[1]": {"tested_on": "HBV Genotype A S ORF reporter sequence", "test": "psiCHECK2 dual-luciferase reporter mismatch assay in HeLa cells", "assay_type": "cell-based", "excerpt": "A psiCHECK-2 dual-luciferase reporter system was utilized to evaluate the effects of a mismatch at a selected position in each of HBV-217, HBV-219, HBV-254, HBV-255, and HBV-258. The psiCHECK vector enables monitoring of changes in expression of a target gene fused to a reporter gene, where active RNAi degrades the fusion construct to produce a corresponding decrease in reporter signal. The diagram in FIG. 6 generically depicts the vector utilized in these assays. The parent partial reporter sequence contained 120 base-pair fragments from Genotype A (GenBank: AM282986.1) around target sites of interest in the S ORE. […]\nThe psiCHECK2 reporter assays with each oligonucleotide were conducted over a three-day period using a 6-point, 5-fold serial dilution starting at 1 nM transfected in HeLa cells. […] The cells were then incubated at 37° C. in a CO2 incubator until the cells were ready to harvest and assay for the target gene. On day 3, 100 μL of Dual-Glo Reagent was added to each well, mixed and incubated for 10 minutes before reading the luminescence. A further 100 μL of Dual-Glo Stop & Glo was added to each well, mixed and incubated for 10 minutes before reading the luminescence. […] The EC50s values determined for each oligonucleotide are shown in Table 3 with additional specifications."}},
  "note": "Read-outs that look alike come from different tables or passages of the source.",
  "data": [
    {"compound": "C=C1[C@H](CO)[C@@H](O)C[C@@H]1n1cnc2c(=O)[nH]c(N)nc21", "note": "[entecavir, Entecavir]", "values": [
      {"measurement": "mean decrease in HBV DNA in plasma relative to PBS", "setting": "HBV; 500 ng/kg PO daily for 14 days, n=6", "value": "~1.6", "unit": "log"},
      {"measurement": "circulating (plasma) HBsAg", "setting": "HBV", "value": "No significant decrease"},
      {"measurement": "circulating (plasma) HBsAg", "setting": "HBV; listed as ETV", "value": "no efficacy"},
      {"measurement": "hepatic viral RNAs (liver HBV mRNA and pgRNA)", "setting": "HBV", "value": "No significant decrease"},
      {"measurement": "hepatic viral RNAs (liver HBV mRNA and pgRNA)", "setting": "HBV; listed as ETV", "value": "no efficacy"}
    ]},
    {"compound": "GalXC-HBVX: RNAi oligonucleotide targeting HBxAg mRNA, sense strand SEQ ID NO: 39, antisense strand SEQ ID NO: 40 (sense UGCACUUCGCGUCACCUCUAGCAGCCGAAAGGCUGC; antisense UAGAGGUGACGCGAAGUGCAGG; GalNAc conjugate (GalXC), modification pattern not given here)", "values": [
      {"measurement": "duration of activity", "setting": "HBsAg mRNA", "value": "shorter duration"},
      {"measurement": "reduction of HBsAg mRNA expression", "setting": "HBsAg mRNA; 12-week time course", "value": "~3.0", "unit": "log"},
      {"measurement": "plasma HBsAg suppression 9 weeks post dose / duration", "setting": "HBsAg", "value": "significant recovery of HBsAg"}
    ]},
    {"compound": "HBV-254: HBsAg-targeting duplex oligonucleotide, sense strand SEQ ID NO: 23, antisense strand SEQ ID NO: 24 (sense GUGGUGGACUUCUCUCAAUAGCAGCCGAAAGGCUGC; antisense UAUUGAGAGAAGUCCACCACGG; listed as RNA, chemistry not given here)", "values": [
      {"measurement": "HBsAg levels relative to control", "setting": "HBsAg viral transcript; QW×3, 3 mg/kg subcutaneous, monitored 147 days (FIG. 3)", "value": "Diminished HBsAg levels persisted in treated mice throughout the entirety of the study"},
      {"measurement": "HBsAg levels", "setting": "HBsAg viral transcript; single dose evaluation, subcutaneous, HDI-mice (FIG. 2)", "value": "systematically reduced HBsAg levels in mice with increasing dosage"},
      {"measurement": "EC50", "setting": "[1]; mismatch duplex, single mismatch to reporter at stated guide position, read-out: MM EC50s", "value": 0.096, "unit": "nM"},
      {"measurement": "EC50", "setting": "[1]; parent duplex, 100% homology to reporter, read-out: Parent EC50s", "value": 0.037, "unit": "nM"}
    ]}
  ]
}
